{
  "source": "patent US5281602A",
  "about": "“Angiotensin II receptor blocking 2,3,6-substituted 5,6,7,8-tetrahydro-pyrido[4,3-D]pyrimidin-4(3H)-ones” (American Cyanamid Company, priority 1993, dated 1994)",
  "key": {"Angiotension II Receptor": {"molecular_target": "Angiotension II Receptor", "test": "Receptor Binding Assay: competition with [^125 I] (Sar^1,Ile^8) AngII on microsomal membranes", "details": "pH 7.4, 60 min, room temperature", "procedure": "Binding of [^125 I] (Sar^1,Ile^8) AngII\nThe binding of [^125 I] (Sar^1,Ile^8) AngII to microsomal membranes is initiated by the addition of reconstituted membranes (1:10 vols.) in freshly made 50.0 mMTris.HCl buffer, pH 7.4 containing 0.25% heat inactivated bovine serum albumin (BSA):80 ul membrane protein (10 to 20 ug/assay) to wells already containing 100 ul of incubation buffer (as described above) and 20 ul [^125 I] (Sar^1,Ile^8) AngII (Specific Activity, 2200 Ci/mmole). Non-specific binding is measured in the presence of 1.0 uM unlabeled (Sar^1,Ile^8) AngII, added in 20 ul volume. Specific binding for [^125 I] (Sar^1,Ile^8) AngII is greater than 90%. In competition studies, experimental compounds are diluted in dimethylsulfoxide (DMSO) and added in 20 ul to wells before the introduction of tissue membranes. This concentration of DMSO is found to have no negative effects on the binding of [^125 I] (Sar^1,Ile^8) AngII to the membranes. Assays are performed in triplicate. […] Presoaking the filter sheet in 0.1% polyethylenemine in normal saline (PEI/Saline) greatly reduces the radioactivity retained by the filter blanks. […] The filters are removed from the filter grid and counted in a Parkard® Cobra Gamma Counter for 1 min. […] The binding data are analyzed by the non-linear interactive \"LUNDON-1\" program (LUNDON SOFTWARE Inc., Cleveland, Ohio U.S.A.). […]"}, "[1]": {"system": "ANGIOTENSIN II (A11) VASOPRESSOR RESPONSE", "test": "AII Challenge: blockade of angiotensin II vasopressor response in conscious SHR", "type": "in vivo, rat (Conscious Male Okamoto-Aoki SHR)", "details": "for Change (single reading, systolic blood pressure) / Response After A11 (systolic blood pressure) / Control Before A11 (systolic blood pressure): 15 mg/kg", "excerpt": "By administering a compound of this invention to a rat, and then challenging with angiotensin II, a blockage of the vasopressor response is realized.\nConscious Male Okamoto-Aoki SHR, 16-20 weeks old, weighing approximately 330 g are purchased from Charles River Labs (Wilmington, Mass.). Conscious rats are restrained in a supine position with elastic tape. The area at the base of the tail is locally anesthetized by subcutaneous infiltration with 2% procaine. The ventral caudal artery and vein are isolated, and a cannula made of polyethylene (PE) 10-20 tubing (fused together by heat) is passed into the lower abdominal aorta and vena cava, respectively. The cannula is secured, heparinized (1,000 I.U./ml), sealed and the wound is closed. The animals are placed in plastic restraining cages in an upright position. The cannula is attached to a Statham P23Db pressure transducer, and pulsatile blood pressure is recorded to 10-15 minutes with a Gould Brush recorder. (Chan et al., (Drug Development Res., 18:75-94, 1989).\nAngiotensin II (human sequence, Sigma Chem. Co., St. Louis, Mo.) of 0.05 and 0.1 ug/kg i.v. is injected into all rats (predosing response). Then a test compound, vehicle or a known angiotensin II antagonist is administered i.v., i.p. or orally to each set of rats. […] The vasopressor response of angiotensin II is measured for the increase in systolic blood pressure in mmHg. The percentage of antagonism or blockade of the vasopressor response of angiotensin II by a compound is calculated using the vasopressor response (increase in systolic blood pressure) of angiotensin II of each rat predosing the compound as 100%. A compound is considered active if at 30 mg/kg i.v. it antagonized at least 50% of the response."}, "[2]": {"details": "15 mg/kg IV (single), AII 0.05 mcg/kg IV, 120 min post dose"}, "[3]": {"details": "15 mg/kg IV (single), AII 0.05 mcg/kg IV, 180 min post dose"}, "[4]": {"details": "15 mg/kg IV (single), AII 0.1 mcg/kg IV, 120 min post dose"}, "[5]": {"details": "15 mg/kg IV (single), AII 0.1 mcg/kg IV, 180 min post dose"}, "[6]": {"details": "15 mg/kg IV, AII 0.05 mcg/kg IV, 30 min post dose"}, "[7]": {"details": "15 mg/kg IV, AII 0.05 mcg/kg IV, 60 min post dose"}, "[8]": {"details": "15 mg/kg IV, AII 0.05 mcg/kg IV, 90 min post dose"}, "[9]": {"details": "15 mg/kg IV, AII 0.1 mcg/kg IV, 30 min post dose"}, "[10]": {"details": "15 mg/kg IV, AII 0.1 mcg/kg IV, 60 min post dose"}, "[11]": {"details": "15 mg/kg IV, AII 0.1 mcg/kg IV, 90 min post dose"}},
  "note": "Where “and” joins values, the source holds several entries; their conditions need not be identical. Equal entries are not always repeated.",
  "data": [
    {"smiles": "CCCCc1nc2c(c(=O)n1Cc1ccc(-c3ccccc3-c3nnn[nH]3)cc1)CN(C(=O)C(C)(C)O)CC2", "note": "[Example 16]", "values": [
      {"measurement": "IC50", "setting": "Angiotension II Receptor", "result": 600, "unit": "nM"},
      {"measurement": "Average % Inhibition (angiotensin blockage) of AII vasopressor response", "setting": "[1]; [2]", "result": 39, "unit": "%"},
      {"measurement": "Average Change (systolic blood pressure response to AII)", "setting": "[1]; [2]", "result": 27.5, "unit": "mmHg"},
      {"measurement": "Change (single reading, systolic blood pressure)", "setting": "[1]; [2]", "result": "35 mmHg and 20 mmHg"},
      {"measurement": "Average % Inhibition (angiotensin blockage) of AII vasopressor response", "setting": "[1]; [3]", "result": 6, "unit": "%"},
      {"measurement": "Average Change (systolic blood pressure response to AII)", "setting": "[1]; [3]", "result": 42.5, "unit": "mmHg"},
      {"measurement": "Change (single reading, systolic blood pressure)", "setting": "[1]; [3]", "result": "55 mmHg and 30 mmHg"},
      {"measurement": "Average % Inhibition (angiotensin blockage) of AII vasopressor response", "setting": "[1]; [4]", "result": 35, "unit": "%"},
      {"measurement": "Average Change (systolic blood pressure response to AII)", "setting": "[1]; [4]", "result": 32.5, "unit": "mmHg"},
      {"measurement": "Change (single reading, systolic blood pressure)", "setting": "[1]; [4]", "result": "40 mmHg and 25 mmHg"},
      {"measurement": "Average % Inhibition (angiotensin blockage) of AII vasopressor response", "setting": "[1]; [5]", "result": 5, "unit": "%"},
      {"measurement": "Average Change (systolic blood pressure response to AII)", "setting": "[1]; [5]", "result": 47.5, "unit": "mmHg"},
      {"measurement": "Change (single reading, systolic blood pressure)", "setting": "[1]; [5]", "result": "50 mmHg and 45 mmHg"},
      {"measurement": "Response After A11 (systolic blood pressure)", "setting": "[1]; 15 mg/kg IV (single), after AII 0.05 mcg/kg IV, 120 min post dose", "result": "245 mmHg and 195 mmHg"},
      {"measurement": "Response After A11 (systolic blood pressure)", "setting": "[1]; 15 mg/kg IV (single), after AII 0.05 mcg/kg IV, 180 min post dose", "result": "230 mmHg and 195 mmHg"},
      {"measurement": "Response After A11 (systolic blood pressure)", "setting": "[1]; 15 mg/kg IV (single), after AII 0.1 mcg/kg IV, 120 min post dose", "result": "240 mmHg and 200 mmHg"},
      {"measurement": "Response After A11 (systolic blood pressure)", "setting": "[1]; 15 mg/kg IV (single), after AII 0.1 mcg/kg IV, 180 min post dose", "result": "260 mmHg and 210 mmHg"},
      {"measurement": "Control Before A11 (systolic blood pressure)", "setting": "[1]; 15 mg/kg IV (single), before AII 0.05 mcg/kg IV, 120 min post dose", "result": "210 mmHg and 175 mmHg"},
      {"measurement": "Control Before A11 (systolic blood pressure)", "setting": "[1]; 15 mg/kg IV (single), before AII 0.05 mcg/kg IV, 180 min post dose", "result": "175 mmHg and 165 mmHg"},
      {"measurement": "Control Before A11 (systolic blood pressure)", "setting": "[1]; 15 mg/kg IV (single), before AII 0.1 mcg/kg IV, 120 min post dose", "result": "200 mmHg and 175 mmHg"},
      {"measurement": "Control Before A11 (systolic blood pressure)", "setting": "[1]; 15 mg/kg IV (single), before AII 0.1 mcg/kg IV, 180 min post dose", "result": "210 mmHg and 165 mmHg"},
      {"measurement": "Average % Inhibition (angiotensin blockage) of AII vasopressor response", "setting": "[1]; [6]", "result": 72, "unit": "%"},
      {"measurement": "Average Change (systolic blood pressure response to AII)", "setting": "[1]; [6]", "result": 12.5, "unit": "mmHg"},
      {"measurement": "Change (single reading, systolic blood pressure)", "setting": "[1]; [6]", "result": "15 mmHg and 10 mmHg"},
      {"measurement": "Average % Inhibition (angiotensin blockage) of AII vasopressor response", "setting": "[1]; [7]", "result": 67, "unit": "%"},
      {"measurement": "Average Change (systolic blood pressure response to AII)", "setting": "[1]; [7]", "result": 15, "unit": "mmHg"},
      {"measurement": "Average % Inhibition (angiotensin blockage) of AII vasopressor response", "setting": "[1]; [8]", "result": 37, "unit": "%"},
      {"measurement": "Average Change (systolic blood pressure response to AII)", "setting": "[1]; [8]", "result": 28.5, "unit": "mmHg"},
      {"measurement": "Average % Inhibition (angiotensin blockage) of AII vasopressor response", "setting": "[1]; [9]", "result": 85, "unit": "%"},
      {"measurement": "Average Change (systolic blood pressure response to AII)", "setting": "[1]; [9]", "result": 7.5, "unit": "mmHg"},
      {"measurement": "Change (single reading, systolic blood pressure)", "setting": "[1]; [9]", "result": "10 mmHg and 5 mmHg"},
      {"measurement": "Average % Inhibition (angiotensin blockage) of AII vasopressor response", "setting": "[1]; [10]", "result": 57, "unit": "%"},
      {"measurement": "Average Change (systolic blood pressure response to AII)", "setting": "[1]; [10]", "result": 21.5, "unit": "mmHg"},
      {"measurement": "Average % Inhibition (angiotensin blockage) of AII vasopressor response", "setting": "[1]; [11]", "result": 33, "unit": "%"},
      {"measurement": "Average Change (systolic blood pressure response to AII)", "setting": "[1]; [11]", "result": 33.5, "unit": "mmHg"},
      {"measurement": "Change (single reading, systolic blood pressure)", "setting": "[1]; [11]", "result": "42 mmHg and 25 mmHg"},
      {"measurement": "Response After A11 (systolic blood pressure)", "setting": "[1]; 15 mg/kg IV, after AII 0.05 mcg/kg IV, 30 min post dose", "result": "210 mmHg and 185 mmHg"},
      {"measurement": "Response After A11 (systolic blood pressure)", "setting": "[1]; 15 mg/kg IV, after AII 0.05 mcg/kg IV, 60 min post dose", "result": "215 mmHg and 190 mmHg"},
      {"measurement": "Response After A11 (systolic blood pressure)", "setting": "[1]; 15 mg/kg IV, after AII 0.05 mcg/kg IV, 90 min post dose", "result": "225 mmHg and 190 mmHg"},
      {"measurement": "Response After A11 (systolic blood pressure)", "setting": "[1]; 15 mg/kg IV, after AII 0.1 mcg/kg IV, 30 min post dose", "result": "205 mmHg and 180 mmHg"},
      {"measurement": "Response After A11 (systolic blood pressure)", "setting": "[1]; 15 mg/kg IV, after AII 0.1 mcg/kg IV, 60 min post dose", "result": "220 mmHg and 188 mmHg"},
      {"measurement": "Response After A11 (systolic blood pressure)", "setting": "[1]; 15 mg/kg IV, after AII 0.1 mcg/kg IV, 90 min post dose", "result": "230 mmHg and 195 mmHg"},
      {"measurement": "Control Before A11 (systolic blood pressure)", "setting": "[1]; 15 mg/kg IV, before AII 0.05 mcg/kg IV, 30 min post dose", "result": "195 mmHg and 175 mmHg"},
      {"measurement": "Control Before A11 (systolic blood pressure)", "setting": "[1]; 15 mg/kg IV, before AII 0.05 mcg/kg IV, 60 min post dose", "result": "190 mmHg and 185 mmHg"},
      {"measurement": "Control Before A11 (systolic blood pressure)", "setting": "[1]; 15 mg/kg IV, before AII 0.05 mcg/kg IV, 90 min post dose", "result": "183 mmHg and 175 mmHg"},
      {"measurement": "Control Before A11 (systolic blood pressure)", "setting": "[1]; 15 mg/kg IV, before AII 0.1 mcg/kg IV, 30 min post dose", "result": "195 mmHg and 175 mmHg"},
      {"measurement": "Control Before A11 (systolic blood pressure)", "setting": "[1]; 15 mg/kg IV, before AII 0.1 mcg/kg IV, 60 min post dose", "result": "190 mmHg and 175 mmHg"},
      {"measurement": "Control Before A11 (systolic blood pressure)", "setting": "[1]; 15 mg/kg IV, before AII 0.1 mcg/kg IV, 90 min post dose", "result": "188 mmHg and 170 mmHg"}
    ]}
  ]
}
